Results taken from patent US20200297775A1, “ENHANCED DIRECT CARDIAC REPROGRAMMING” (The J. David Gladstone Institutes, A Testamentary Trust …, priority 2016, published 2020).

Legend:
[1] = test system: Thy1+ neonatal cardiac fibroblasts from α-MHC-GFP transgenic mice; test: Drug screening of GMT cardiac reprogramming, α-MHC-GFP reporter, high-content imaging; assay type: cell-based, mouse; conditions: compounds added day 1, read-out 2 weeks
Description: To identify biological pathways that could be manipulated to improve cardiac reprogramming, a chemical biology approach involving an unbiased small molecule library screen was used. Cardiac reprogramming was induced with the recently described polycistronic GMT retrovirus Mef2c-P2A-Gata4-T2A-Tbx5 to ensure that each of the three transcription factors are optimally expressed, as described in detail in Wang et al. (2015) Circ. Res. 116:237-244.
Briefly, mouse cardiac fibroblasts (CF) were isolated from PO-P4 αMHC-GFP transgenic neonates using the migration method as previously described. Burridge et al. (2012) Cell Stem Cell 10:16-28; Ieda et al. (2010) Cell 142:375-386. Hearts were isolated, minced, and onto gelatin-coated plates and incubated in fibroblast explant media (20% FBS in IMOM) for one week at 37° C. The tissue was washed with 2×PBS, digested in 0.05% Trypsin for 5 minutes, and resuspended in fibroblast explant media. Tissues were filtered through a […] filter and pelleted. Pelleted cells were stained for 20 minutes with Thy-1-APC (anti-mouse/rat CD90.1 thy-1.1) (Ebioscience, San Diego, Calif., USA) and washed 2× with PBS as previously described. Ieda et al. (2010) Cell 142:375-386. Cells were sorted for APC^+ cells by fluorescence activated cell sorting (FACS) and plated onto 10 cm gelatin-coated plates and used fresh for all studies without freezing.
Direct conversion of Thy1^+ CFs to iCMs was completed as previously described in Ieda et al. (2010) Cell 142:375-386. Briefly, pMXs-Gata4, pMXs-Mef2c, pMXs-Tbx5, polycistronic pMXs-Mef2c-Gata4-Tbx5 (GMT polycistronic) or pMXs-dsRed were constructed as previously described. Ieda et al. (2010) Cell 142:375-386; Wang, L., et al. (2015) Circ Res 116, 237-244 (2015). Retroviral vectors were packaged using Fugene HD (Roche) and delivered in OptiMEM (10 μg) to 15-cm plates containing ˜80% confluent PlatE cells in fibroblast explant media, as previously described. Qian, L., et al. (2012) Nature 485, 593-59. Viral supernatant was collected 48 hours post-transfection and used to infect cardiac fibroblasts with the addition of 0.6 μg/ml polybrene (Chemicon) and added to cardiac fibroblasts at day −1. After 24 hours, the culture medium was replaced with cardiomyocyte culture medium (iCM medium (Qian, L., et al. (2013) Nature Protocols 8: 1204-1215)) at day 0, and replaced every 3-4 days. Three separate Gata4, Mef2c, and Tbx5 retroviruses were used in the initial drug screening and the in vivo experiments; however for further in vitro experiments following the initial screening the GMT polycistronic retrovirus was used.
For drug screening, Thy1^+ neonatal cardiac fibroblasts from α-MHC-GFP transgenic mice were plated in 384-well plates at a density of 2000 cells/well. Cells were reprogrammed with the GMT retrovirus as described above. At day 1 of reprogramming, the virus was replaced with iCM medium and the compounds were added to the wells using a Biomek liquid-handling robotic station to achieve a 1:1000 dilution of the drug-library concentration. Libraries of 5500 toxicologically tested compounds (e.g., LOPAC, TOCRIS, LONZA, and […]) were screened. At day 14 of reprogramming, the plates were fixed and stained for GFP and Troponin T as described under immunocytochemistry and imaged using high-throughput, high-content imaging with an INCELL system. Data were analyzed using the INCELL image-analysis package.
For immunocytochemical analysis and quantification, samples were fixed using 4% paraformaldehyde (PFA), washed twice in PBS containing 0.1% Triton X-100 (PBST), and blocked with Power Block Universal Blocking Reagent (Biogenex, # HK085-5K) for 15 minutes at room temperature as previously described. Qian et al. (2013) Nature protocols 8:1204-1215. Samples were incubated in a mixture containing primary antibodies diluted in PBST and blocking buffer (1:1) and incubated at 4° C. overnight.

[2] = test system: mouse cardiac fibroblasts; test: GMT reprogramming efficiency, α-MHC-GFP+ iCMs (dose, timing, FACS); assay type: cell-based
[3] = test system: cardiac and fibroblast genes; test: qRT-PCR panel of cardiac and fibroblast genes during GMT reprogramming; assay type: cell-based, mouse; conditions: 2 weeks of reprogramming
Method: To identify which of the WNT or TGF-β inhibitor compounds most effectively improve reprogramming quality, qRT-PCR was performed for a panel of cardiac and fibroblast genes. Briefly, total RNA was isolated with a commercial kit (Direct-Zol RNA Mini-prep, Zymo Research). Reverse transcription was carried out using a mixture of oligo(dT) and random hexamer primers (SuperScript III First-Strand Synthesis SuperMix for qRT-PCR, ThermoFisher Scientific). Real-time PCR Analysis was conducted with the 7900HT FAST real-time PCR detection system (Applied Biosystems). For high-throughput, real-time PCR analysis, samples were analyzed with the 96.96 Dynamic Array IFC on the Biomark HD system (Fluidigm).

[4] = test system: active β catenin; test: Western blot, active β catenin; assay type: cell-based
Method: (§1) Next, the mechanisms by which the small molecules regulate TGF-β and WNT signaling were investigated. Proteins from cell lysates containing 20 μg of protein were separated by SDS-PAGE and electrophoretically transferred onto polyvinylidene difluoride membranes (BioRad). Membranes were then washed in PBS, treated with blocking buffer (Li-cor), and then incubated with primary antibodies at 4° C. overnight. The following primary antibodies were used: anti-GAPDH antibody loading control (Abcam # ab9484, 0.5 μg/ml), anti-Active β-Catenin antibody (Millipore #05-665, 1:1000), anti-T-Antigen (Abcam # ab16879, 1:1000), and anti-phospho-Smad2/3 (Cell Signaling #8685S, 1:1000). Membranes were washed in PBS and incubated with the appropriate secondary antibodies (Li-Cor, IRDye […]; IRDye 800CW, 1:10,000) for 1 hour at room temperature. Membranes were washed and visualized with an Odyssey Fc Dual-mode Imaging System.

[5] = test system: SMAD2/3; test: Western blot, phosphorylation of SMAD2/3; assay type: cell-based
Method: as §1

[6] = test system: mouse cardiac fibroblasts; test: Appearance of beating cells, Troponin T staining and sarcomere organization in iCMs; assay type: cell-based; conditions: after GMT infection
Method: For immunocytochemical analysis and quantification, samples were fixed using 4% paraformaldehyde (PFA), washed twice in PBS containing 0.1% Triton X-100 (PBST), and blocked with Power Block Universal Blocking Reagent (Biogenex, # HK085-5K) for 15 minutes at room temperature as previously described. Qian et al. (2013) Nature protocols 8:1204-1215. Samples were incubated in a mixture containing primary antibodies diluted in PBST and blocking buffer (1:1) and incubated at 4° C. overnight. The following primary antibodies were used: troponin T, cardiac isoform Ab-1, mouse monoclonal antibody (Thermo Scientific # MS-295-PO, 1:200), monoclonal anti-α-actinin sarcomeric antibody (Sigma Aldrich # A7811, 1/200), and anti-GFP (Thermo Scientific # A11120, 1:200). Samples were washed twice with PBST for 15 minutes each at room temperature and then incubated in a mixture containing secondary antibodies diluted in PBST and blocking buffer (1:1) at room temperature for 1 hour. Samples were washed three times with PBST for 15 minutes each at room temperature and visualized. Stained cells were quantified with ImageJ Imaging Analysis Software. The standard error mean was calculated for all comparisons; p<0.05 was considered statistically significant. […]

[7] = test system: cardiac fibroblasts; test: Activation or knockdown of TGF-β/WNT signaling during GMT reprogramming; assay type: cell-based, mouse; conditions: added during GMT reprogramming
Description: It was also observed that activating TGF-β or canonical WNT signaling reversed the reprogramming efficiency gains induced by SB431542 or XAV939, respectively. […] Moreover, overexpression of constitutively active SMAD2 or SMAD3 (TGF-β signaling effectors) abolished cardiac reprogramming enhancement by SB431542 (FIG. 15). […] An ˜80% reduction of ALK4 or ALK5 (FIG. 16) enhanced direct cardiac reprogramming, similar to SB431542 (FIG. 16). […] Thus, SB431542 and XAV939 enhance cardiac reprogramming by inhibiting TGF-β and canonical WNT signaling.

## c1ccc2c(-c3cnn4cc(-c5ccc(N6CCNCC6)cc5)cnc34)ccnc2c1 [LDN-193189]
[1]
  hit in drug screen (Z score over 5): top hits

## Oc1nc(-c2ccc(C(F)(F)F)cc2)nc2c1CSCC2 [XAV939]
[2]; GMT reprogramming efficiency
  most effective dose: 5 µM
[2]; GMT, XAV939
  effect of time of addition on enhancement: same enhancement effect when added at any time during the first 8 days
[1]
  hit in drug screen (Z score over 5): top hits
[3]; among WNT inhibitors
  activating cardiac gene expression: most efficient of the WNT inhibitors
[4]
  expression of active β catenin (indicator of WNT activation): significantly reduced

## NC(=O)c1ccc(-c2nc(-c3ccc4c(c3)OCO4)c(-c3ccccn3)[nH]2)cc1 [SB431542]
[2]; GMT, SB431542 2.6 μM
  timing of addition for reprogramming efficiency: most effective if added at day 1
[1]
  hit in drug screen (Z score over 5): top hits
[3]; among TGF-β inhibitors
  downregulating fibroblast gene expression: most efficient of the TGF-β inhibitors
[5]
  phosphorylation of SMAD2/3 (indicator of TGF-β activation): significantly reduced
[6]
  appearance of beating cells: 3 weeks

## CN1C(C(=O)Nc2ccccn2)=C(O)c2ccccc2S1(=O)=O [piroxicam]
[1]
  hit in drug screen (Z score over 5): top hits

## O=c1c(O)c(-c2cc(O)c(O)c(O)c2)oc2cc(O)cc(O)c12 [myricetin]
[1]
  hit in drug screen (Z score over 5): top hits

## TGF-β1 ligand: excess TGF-β1 ligand added during reprogramming
[7]
  effect on reprogramming enhanced by SB431542: reversed the effect of SB431542
  effect on reprogramming enhanced by SB431542 and XAV939: partially inhibited the combined effect

## O=C(Nc1cccc2cccnc12)c1ccc(N2C(=O)[C@@H]3[C@H](C2=O)[C@@H]2C=C[C@H]3C2)cc1 [IWR1]
[1]
  hit in drug screen (Z score over 5): top hits

## activin
[7]
  effect on reprogramming enhanced by SB431542: did not have a significant effect

## NC(=O)c1ccc(-c2nc(-c3ccc4c(c3)OCCO4)c(-c3ccccn3)[nH]2)cc1 [D4476]
[1]
  hit in drug screen (Z score over 5): top hits

## Cc1c[nH]c(-c2cnc(NCCNc3ccc(C#N)cn3)nc2-c2ccc(Cl)cc2Cl)n1 [CHIR99021]
[7]
  effect on reprogramming enhanced by SB431542 and XAV939: reversed the combined effect

B1: BMP4: regulates other aspects of TGF-β signaling (protein, UniProt P12644 293-408, looked up)
Bone morphogenetic protein 4: SPKHHSQRARKKNKNCRRHSLYVDFSDVGWNDWIVAPPGYQAFYCHGDCPFPLADHLNSTNHAIVQTLVNSVNSSIPKACCVPTELSAISMLYLDEYDKVVLKNYQEMVVEGCGCR
[7]
  effect on reprogramming enhanced by SB431542: did not significantly affect cardiac reprogramming

B2: WNT3a: activates canonical WNT signaling (protein, UniProt P56704 19-352, looked up)
Protein Wnt-3a: SYPIWWSLAVGPQYSSLGSQPILCASIPGLVPKQLRFCRNYVEIMPSVAEGIKIGIQECQHQFRGRRWNCTTVHDSLAIFGPVLDKATRESAFVHAIASAGVAFAVTRSCAEGTAAICGCSSRHQGSPGKGWKWGGCSEDIEFGGMVSREFADARENRPDARSAMNRHNNEAGRQAIASHMHLKCKCHGLSGSCEVKTCWWSQPDFRAIGDFLKDKYDSASEMVVEKHRESRGWVETLRPRYTYFKVPTERDLVYYEASPNFCEPNPETGSFGTRDRTCNVSSHGIDGCDLLCCGRGHNARAERRREKCRCVFHWCCYVSCQECTRVYDVHTCK
[7]
  effect on reprogramming enhanced by SB431542 and XAV939: partially blocked the effects

B3: WNT11: activates the non-canonical WNT pathway (protein, UniProt O96014 25-354, looked up)
Protein Wnt-11: IKWLALSKTPSALALNQTQHCKQLEGLVSAQVQLCRSNLELMHTVVHAAREVMKACRRAFADMRWNCSSIELAPNYLLDLERGTRESAFVYALSAAAISHAIARACTSGDLPGCSCGPVPGEPPGPGNRWGGCADNLSYGLLMGAKFSDAPMKVKKTGSQANKLMRLHNSEVGRQALRASLEMKCKCHGVSGSCSIRTCWKGLQELQDVAADLKTRYLSATKVVHRPMGTRKHLVPKDLDIRPVKDSELVYLQSSPDFCMKNEKVGSHGTQDRQCNKTSNGSDSCDLMCCGRGYNPYTDRVVERCHCKYHWCCYVTCRRCERTVERYVCK
[7]
  effect on reprogramming enhanced by SB431542 and XAV939: did not have a significant effect
